The source of these data is patent publication US20220127232A1, “HISTONE ACETYLTRANSFERASE MODULATORS AND COMPOSITIONS AND USES THEREOF” (The Trustees of Columbia University in the City of New York, priority 2019, published 2022).

Data set [1] has as its system hippocampal slices from WT mice. Kind of data set: Long-term potentiation (LTP) in hippocampal slices perfused with oTau or oAβ. To be noted: slices perfused with compound and either oTau (50 nM) or oAβ (200 nM). The format is cell-based. From the text: Synaptic dysfunction is a major hallmark of AD (Histol Histopathol, 1995. 10(2): p. 509-19; herein incorporated by reference in its entirety). An aspect of the drug screening protocol can include a measurement of the effect of compounds onto synaptic function. Amyloid-beta (Aβ) is a toxic peptide that is thought to underlie subtle amnesic changes occurring at early stages of Alzheimer's disease. It impairs both memory and its electrophysiological surrogate, long-term potentiation (LTP). LTP can be examined because it is a type of synaptic plasticity thought to underlie learning and memory. RA010115 can rescue the Aβ-induced reduction of LTP, and other compounds can also be screened to identify those that can re-establish normal LTP. The compounds can be applied for 20 min. Controls can be performed on slices in the absence of Aβ, and mice treated with compound. Tau is another peptide that is involved in cell to cell communication, and impairs both memory and LTP in animal models of AD and other tauopathies. FIG. 26 is a graph showing that RA010115 rescues oligomeric Tau (oTau)- and oligomeric Aβ (o Aβ)-induced LTP deficits. LTP was impaired in hippocampal slices from WT mice perfused with oTau (50 nM) and oAβ (200 nM), whereas there was no impairment in slices treated with RA10115 or vehicle. LTP was restored in slices perfused with RA010115 and either oTau or oAβ. The horizontal solid bar represents oAβ and oTau perfusion while the horizontal dashed bar represents RA010115. The three arrows correspond to the theta-burst stimulation. […]

The nature of data set [2]: Stability in human liver microsomes. It is filed as in vitro ADME. How it is done:
Some compounds were tested for stability in human liver microsomes as shown below in Table 2.
Mixed-gender human liver microsomes (Lot #1010420) were purchased from XenoTech. The reaction mixture, minus NADPH, was prepared as described below. The test article was added into the reaction mixture at a final concentration of 1 μM. The control compound, testosterone, was run simultaneously with the test article in a separate reaction. An aliquot of the reaction mixture (without cofactor) was equilibrated in a shaking water bath at 37° C. for 3 minutes. The reaction was initiated by the addition of the cofactor, and the mixture was incubated in a shaking water bath at 37° C. Aliquots (100 μL) were withdrawn at 0, 10, 20, 30, and 60 minutes. Test article and testosterone samples were immediately combined with 400 μL of ice-cold 50/50 acetonitrile (ACN)/H2O containing 0.1% formic acid and internal standard to terminate the reaction. The samples were then mixed and centrifuged to precipitate proteins. All samples were assayed by LC-MS/MS using electrospray ionization. Analytical conditions are outlined in Appendix 1. The peak area response ratio (PARR) to internal standard was compared to the PARR at time 0 to determine the percent remaining at each time point. Half-lives and clearance were calculated using GraphPad software, fitting to a single-phase exponential decay equation.
Liver Microsomes 0.5 mg/mL NADPH (cofactor) 1 mM
Potassium Phosphate, pH 7.4 100 mM
Intrinsic clearance (CLint) was calculated based on CLint=k/P, where k is the elimination constant and P is the protein concentration in the incubation.

In the next data set the target is p300 (Homo sapiens, UniProt Q09472). Nature of the data set: Histone Acetyltransferase (HAT) in vitro acetylation assay, western blot of H3K27ac / H3K18ac. Particulars: compound in DMSO, EC50 for activators. It is filed as biochemical. How it is done: The aim of the in vitro acetylation assay is to measure the enzymatic activity of the various compounds towards p300.
First, the drug is prepared:
Second, dilute p300 in AM1 buffer to a concentration of 40 ng/μL (final concentration in the reaction 20 ng/μL). This is accomplished by diluting 1 μL of p300 (at 0.4 μg/μL) into […] of AM1 buffer.
Third, prepare the Master Mix. Prepare the Master Mix in low protein binding tubes (ThermoFisher Cat. No. 90410), 20 μL system.
Incubate reactions at 30° C. for 30 minutes.
Incubate reactions at 30° C. for 1 hour.
Fourth, perform the western blot assay. • Add 6.7 μL of Laemmli Sample Buffer 4× (Bio-Rad Laboratories Cat. No. 161-0737) for each reaction and boil samples at 95° C. for 5 min. • Charge 10 μL for each sample in 2 Tris Glycine 4-15% gels (Bio-Rad Laboratories Cat. No. 456-1086). Running Buffer: Tris-Glycine 1× (pour in the cell up to the writing “2 gels”). • Run at 90 V for 1 hour (until the gel front reaches the green line of cell). • Semi-dry transfer with Trans-Blot® Turbo™ Blotting System from Bio-Rad Laboratories (Trans-Blot® Turbo™ RTA midi PVDF transfer kit Cat. No1704275). • Activate PVDF membrane in methanol for 5 minutes and then wet in Trans-Blot® Turbo™ transfer buffer. • Wet stacks in transfer buffer. • Transfer at 23 V 1.3 A for 7 minutes. • Blocking buffer: 5% Non-Fat milk in TBST (tween 0.1%) 1 hour at room temperature. • Cut the membranes to get Ac-His 3 at 17 kDa and p300 at 300 kDa. • Incubate with primary antibodies overnight at 4° C. • The day after, make 3 washes in TBST (Tween 0.1%) of 10 minutes. • Incubate with secondary antibody at room temperature for 1 hour. • Make 3 washes in TBST (Tween 0.1%) of 5 minutes. • Incubate membranes with ECL (SuperSignal West Dura Extended Duration Substrate from ThermoFisher) for 5 minutes at room temperature. • Acquire the image with ChemiDoc Odyssey Fc 2 minutes.
To detect total H3 (loading control), strip the membranes with Restore™ Western Blot Stripping Buffer according to the manufacturer protocol.
Various compounds were tested for enzymatic activity with respect to Lys 18 and Lys 27. EC50 is indicated for Activators and IC50 for inhibitors respectively.
FIGS. 1A to 25B are graphs showing the lysine residue acetylation as a function of concentration for the compounds set forth in Table 3. The shaded area corresponds to the average values of lysine residue acetylation (continuous line) and their standard error range measured in the absence of compound and DMSO. The number of replicates is represented by “n”.

The conditions of data set [3]: cited from earlier work.

“Also recorded” adds a separate entry of the source. Where two headings read alike, the source gives them in different places.

p300, sequence (Q09472 whole entry, species assumed): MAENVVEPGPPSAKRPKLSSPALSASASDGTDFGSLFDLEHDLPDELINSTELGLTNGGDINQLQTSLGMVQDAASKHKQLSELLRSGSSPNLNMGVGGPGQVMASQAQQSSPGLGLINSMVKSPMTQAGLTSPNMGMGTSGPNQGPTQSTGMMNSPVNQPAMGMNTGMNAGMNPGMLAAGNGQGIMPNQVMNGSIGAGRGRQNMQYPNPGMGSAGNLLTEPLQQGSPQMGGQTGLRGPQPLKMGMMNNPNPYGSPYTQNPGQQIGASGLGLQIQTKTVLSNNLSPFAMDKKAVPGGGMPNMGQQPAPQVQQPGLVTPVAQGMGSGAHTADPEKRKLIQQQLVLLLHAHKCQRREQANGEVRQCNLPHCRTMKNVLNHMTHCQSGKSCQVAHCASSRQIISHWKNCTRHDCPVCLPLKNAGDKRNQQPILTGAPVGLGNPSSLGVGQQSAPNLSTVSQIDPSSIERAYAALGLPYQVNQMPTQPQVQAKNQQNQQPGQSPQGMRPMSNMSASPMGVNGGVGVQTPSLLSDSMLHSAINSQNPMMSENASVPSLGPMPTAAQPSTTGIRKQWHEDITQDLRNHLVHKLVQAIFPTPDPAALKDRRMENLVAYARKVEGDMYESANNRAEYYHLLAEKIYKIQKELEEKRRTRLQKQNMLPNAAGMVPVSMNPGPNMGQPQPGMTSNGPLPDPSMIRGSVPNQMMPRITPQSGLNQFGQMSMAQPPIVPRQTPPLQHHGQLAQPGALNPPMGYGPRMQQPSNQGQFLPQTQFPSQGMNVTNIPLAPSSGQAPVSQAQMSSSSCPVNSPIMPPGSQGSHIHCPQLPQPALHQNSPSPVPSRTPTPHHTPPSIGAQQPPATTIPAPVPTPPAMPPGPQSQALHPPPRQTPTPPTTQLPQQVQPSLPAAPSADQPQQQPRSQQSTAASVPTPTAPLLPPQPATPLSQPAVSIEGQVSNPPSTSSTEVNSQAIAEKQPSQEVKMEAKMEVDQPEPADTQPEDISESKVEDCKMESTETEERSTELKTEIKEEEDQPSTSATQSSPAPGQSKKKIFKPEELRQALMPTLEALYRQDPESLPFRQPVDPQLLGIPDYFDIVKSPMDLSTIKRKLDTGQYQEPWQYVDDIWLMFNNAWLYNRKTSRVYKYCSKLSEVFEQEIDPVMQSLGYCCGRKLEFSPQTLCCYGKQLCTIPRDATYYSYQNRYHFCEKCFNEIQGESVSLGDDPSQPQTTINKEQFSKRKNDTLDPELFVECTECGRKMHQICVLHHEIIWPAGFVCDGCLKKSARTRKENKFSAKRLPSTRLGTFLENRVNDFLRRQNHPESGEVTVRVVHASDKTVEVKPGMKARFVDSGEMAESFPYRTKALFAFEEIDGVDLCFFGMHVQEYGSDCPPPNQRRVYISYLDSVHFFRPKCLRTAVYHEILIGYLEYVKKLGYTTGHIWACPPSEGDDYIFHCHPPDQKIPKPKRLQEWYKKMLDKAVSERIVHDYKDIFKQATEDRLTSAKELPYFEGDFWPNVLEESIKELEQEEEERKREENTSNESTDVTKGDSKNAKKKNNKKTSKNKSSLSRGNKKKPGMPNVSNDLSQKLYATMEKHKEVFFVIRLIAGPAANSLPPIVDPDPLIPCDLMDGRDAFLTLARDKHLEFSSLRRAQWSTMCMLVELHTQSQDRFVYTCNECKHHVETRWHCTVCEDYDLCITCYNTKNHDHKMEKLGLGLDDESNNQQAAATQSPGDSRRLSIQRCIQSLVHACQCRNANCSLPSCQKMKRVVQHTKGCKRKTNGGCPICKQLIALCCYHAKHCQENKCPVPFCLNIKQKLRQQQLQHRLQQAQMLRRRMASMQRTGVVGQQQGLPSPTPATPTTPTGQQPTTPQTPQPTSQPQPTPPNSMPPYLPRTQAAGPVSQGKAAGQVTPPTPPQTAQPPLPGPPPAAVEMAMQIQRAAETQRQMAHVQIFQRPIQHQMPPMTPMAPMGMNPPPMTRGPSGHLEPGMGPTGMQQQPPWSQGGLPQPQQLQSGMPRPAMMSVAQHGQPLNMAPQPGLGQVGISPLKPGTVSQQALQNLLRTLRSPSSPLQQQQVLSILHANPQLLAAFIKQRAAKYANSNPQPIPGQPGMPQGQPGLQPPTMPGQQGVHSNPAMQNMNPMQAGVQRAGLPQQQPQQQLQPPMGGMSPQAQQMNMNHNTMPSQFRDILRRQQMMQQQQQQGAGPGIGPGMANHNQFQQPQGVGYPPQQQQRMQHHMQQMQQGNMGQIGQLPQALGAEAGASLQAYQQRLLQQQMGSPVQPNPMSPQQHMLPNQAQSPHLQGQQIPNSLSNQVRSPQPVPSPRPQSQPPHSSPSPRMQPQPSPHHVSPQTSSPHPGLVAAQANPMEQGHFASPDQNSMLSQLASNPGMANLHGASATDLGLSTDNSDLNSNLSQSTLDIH

In the case of `CCOc1cccc(OCCN(C)C)c1C(=O)Nc1ccc(Cl)c(C(F)(F)F)n1` [RA013915], the “oTau- and oAβ-induced LTP deficits” value in data set [1] is recorded as “restored; also recorded: rescues”. For the same molecule, the microsomal CLint at 1 μM in data set [2] (both sexes, human, liver microsomes, pH 7.4, human liver microsomes, 1 μM, read-out: CLint) amounted to 43.2 µL/min/mg. In data set [2] (both sexes, human, liver microsomes, pH 7.4, human liver microsomes, 1 μM, read-out: Half-life), the half-life at 1 μM came out at 32.1 min. Moreover, the “% Remaining of Initial (n = 1) 0 min” value in data set [2] (human liver microsomes, test article 1 μM, 0 min) was found to be 100%. Further, the “% Remaining of Initial (n = 1) 10 min” value in data set [2] (human liver microsomes, test article 1 μM, 10 min) worked out at 79.6%. The “% Remaining of Initial (n = 1) 20 min” value in data set [2] (human liver microsomes, test article 1 μM, 20 min) amounted to 63.8%. Besides, in data set [2] (human liver microsomes, test article 1 μM, 30 min), the “% Remaining of Initial (n = 1) 30 min” value is listed as 52.4%. In data set [2] (human liver microsomes, test article 1 μM, 60 min), the “% Remaining of Initial (n = 1) 60 min” value came out at 27.6%. Besides, the concentration giving a half-maximal response (EC50) at p300 (read-out: H3-Lys 18 EC50) amounted to 72.6 nM; on p300 (read-out: H3-Lys 27 EC50), 57.6 nM.
As for `CCCCCCCCCCCCCCCc1cccc(OCC)c1C(=O)Nc1ccc(Cl)c(C(F)(F)F)c1` [CTPB], the Solubility result in data set [3] was “insoluble”.
Take `CCOc1ccccc1C(=O)Nc1ccc(Cl)c(C(F)(F)F)c1` [CTB]: the Solubility entry in data set [3] is given as “insoluble”.
